Assay results reported in ChEMBL document CHEMBL4699579, “A Peptidyl Inhibitor that Blocks Calcineurin-NFAT Interaction and Prevents Acute Lung Injury” (J Med Chem, 2020).
The source made the active and inactive calls. No cut-off for these calls is given here. Positions of bridges follow the written chain, without caps; N, C: chain ends. Non-standard residues stand in square brackets, D forms with d. Residues, ends and D or L forms follow the SMILES beside them. Chains are numbered I, II in the order given. *: point of attachment. 2Nal = N[C@@H](Cc1ccc2ccccc2c1)C(=O)O; Val(3-OH) = CC(C)(O)[C@H](N)C(=O)O; Tle = CC(C)(C)[C@H](N)C(=O)O; X1 = O=C(c1ccnc(Cl)c1Cl)*; AEEA = NCCOCCOCC(=O)O

Key:
[1] = Drug concentration in BALB/c mouse spleen at 5 mg/kg, iv after 8 hrs by LC-MS/MS analysis; type: ADME, organism-based; settings: read-out: Drug uptake
[2] = Drug distribution in BALB/c mouse pancreas at 0.6 mg/kg, iv using compound labelled with cyanine-5 measured after 24 hrs by fluorescence based assay; type: ADME, organism-based; settings: read-out: Drug uptake
[3] = Drug distribution in BALB/c mouse liver at 0.6 mg/kg, iv using compound labelled with cyanine-5 measured after 24 hrs by fluorescence based assay; type: ADME, organism-based; settings: in vivo
Mus musculus [4] = assay: Anti-inflammatory activity in BALB/c mouse model of LPS-induced ALI assessed as reduction in LPS-induced BALF protein levels at 3 mg/kg dosed via intranasal instillation pre-treated 2 hrs before LPS stimulation for 6 hrs and measured at 24 hrs; type: functional, organism-based
Mus musculus [5] = assay: Anti-inflammatory activity in BALB/c mouse model of LPS-induced ALI assessed as reduction in LPS-induced TNFalpha in lung at 5 mg/kg, iv pre-treated 4 hrs before LPS stimulation for 16 hrs; type: functional; settings: time 20 hrs
[6] = Drug distribution in BALB/c mouse neutrophils at 0.6 mg/kg, iv using compound labelled with cyanine-5 measured after 24 hrs by flow cytometry; type: ADME, organism-based, Neutrophil; settings: in vivo
[7] = Stability in simulated gastric fluid at 5 uM incubated for 2 hrs by LC/MS/MS analysis
[8] = Drug distribution in BALB/c mouse pancreas at […], sc using compound labelled with cyanine-5 measured after 24 hrs by fluorescence based assay; type: ADME, organism-based; settings: dose 2.4 mg/kg, read-out: Drug uptake
[9] = Drug metabolism in BALB/c mouse spleen at 5 mg/kg, iv after 8 hrs by LC-MS/MS analysis; type: ADME, organism-based; settings: in vivo
[10] = Drug distribution in BALB/c mouse plasma at 0.6 mg/kg, iv using compound labelled with cyanine-5 measured after 24 hrs by fluorescence based assay; type: ADME, organism-based; settings: in vivo
Mus musculus [11] = assay: Anti-inflammatory activity in BALB/c mouse model of LPS-induced ALI assessed as reduction in LPS-induced lung wet-to-dry ratios at 5 mg/kg, iv pre-treated 4 hrs before LPS stimulation for 16 hrs; type: functional, organism-based; settings: time 20.0 hrs
[12] = Drug distribution in BALB/c mouse monocytes at 0.6 mg/kg, iv using compound labelled with cyanine-5 measured after 24 hrs by flow cytometry; type: ADME, organism-based, Monocyte; settings: in vivo
Mus musculus [13] = assay: Anti-inflammatory activity in BALB/c mouse model of LPS-induced ALI assessed as reduction in LPS-induced lung wet-to-dry ratios at 3 mg/kg dosed via intranasal instillation pre-treated 2 hrs before LPS stimulation for 6 hrs; type: functional, organism-based; settings: time 8.0 hrs
Homo sapiens = species on record: Homo sapiens; assay: Inhibition of GST-tagged Calcineurin (unknown origin) assessed as reduction in phosphatase activity at 50 uM incubated for 30 mins using p-nitrophenyl phosphate substrate
[14] = Drug distribution in BALB/c mouse lung at […], ip using compound labelled with cyanine-5 measured after 24 hrs by fluorescence based assay; type: ADME, organism-based; settings: dose 2.4 mg/kg, read-out: Drug uptake
[15] = Drug distribution in BALB/c mouse heart at […], sc using compound labelled with cyanine-5 measured after 24 hrs by fluorescence based assay; type: ADME, organism-based; settings: dose 2.4 mg/kg, read-out: Drug uptake
[16] = Stability in mouse liver microsomes assessed as compound degradation at 100 uM after 1 hr in presence of NADPH by LC-MS/MS analysis; type: ADME, Microsome; settings: read-out: Drug degradation
[17] = Drug distribution in BALB/c mouse lymph nodes at […], ip using compound labelled with cyanine-5 measured after 24 hrs by fluorescence based assay; type: ADME, organism-based, Lymph node; settings: dose 2.4 mg/kg, read-out: Drug uptake
[18] = Drug metabolism in BALB/c mouse kidney at 5 mg/kg, iv after 8 hrs by LC-MS/MS analysis; type: ADME, organism-based; settings: in vivo
[19] = Stability in human HCT-116 cells spheroids assessed as compound degradation at 5 uM incubated for 24 hrs by MALDI-TOF-TOF mass spectrometry; type: ADME, cell-based; settings: hct-116, 24 h
[20] = Drug distribution in BALB/c mouse heart at […], ip using compound labelled with cyanine-5 measured after 24 hrs by fluorescence based assay; type: ADME, organism-based; settings: dose 2.4 mg/kg, read-out: Drug uptake
[21] = Plasma concentration in BALB/c mouse at 5 mg/kg, iv after 2 to 4 hrs by LC-MS/MS analysis; type: ADME, organism-based; settings: in vivo, time 2-4 hrs
[22] = Drug distribution in BALB/c mouse liver at […], ip using compound labelled with cyanine-5 measured after 24 hrs by fluorescence based assay; type: ADME, organism-based; settings: in vivo, dose 2.4 mg/kg
[23] = Drug concentration in BALB/c mouse muscle at 5 mg/kg, iv after 8 hrs by LC-MS/MS analysis; type: ADME, organism-based, Muscle tissue; settings: in vivo
[24] = Drug distribution in BALB/c mouse pancreas at […], ip using compound labelled with cyanine-5 measured after 24 hrs by fluorescence based assay; type: ADME, organism-based; settings: dose 2.4 mg/kg, read-out: Drug uptake
[25] = Drug distribution in BALB/c mouse neutrophils at […], ip using compound labelled with cyanine-5 measured after 24 hrs by flow cytometry; type: ADME, organism-based, Neutrophil; settings: in vivo, dose 2.4 mg/kg
[26] = Drug concentration in BALB/c mouse brain at 5 mg/kg, iv after 8 hrs by LC-MS/MS analysis; type: ADME, organism-based; settings: in vivo
[27] = Drug distribution in BALB/c mouse Non-T and B lymphocytes at 0.6 mg/kg, iv using compound labelled with cyanine-5 measured after 24 hrs by flow cytometry; type: ADME, organism-based, Lymphocyte; settings: in vivo
[28] = Drug metabolism in BALB/c mouse liver at 5 mg/kg, iv after 8 hrs by LC-MS/MS analysis; type: ADME, organism-based; settings: in vivo
[29] = Drug distribution in BALB/c mouse Non-T and B lymphocytes at […], sc using compound labelled with cyanine-5 measured after 24 hrs by flow cytometry; type: ADME, organism-based, Lymphocyte; settings: in vivo, dose 2.4 mg/kg
[30] = Drug distribution in BALB/c mouse kidney at […], sc using compound labelled with cyanine-5 measured after 24 hrs by fluorescence based assay; type: ADME, organism-based; settings: in vivo, dose 2.4 mg/kg
[31] = Stability in simulated intestinal fluid at 5 uM incubated for 2 hrs by LC/MS/MS analysis
Mus musculus [32] = assay: Anti-inflammatory activity in BALB/c mouse model of LPS-induced ALI assessed as effect on LPS-induced TNFalpha in kidney at 5 mg/kg, iv pre-treated 4 hrs before LPS stimulation for 16 hrs; type: functional, organism-based; settings: time 20.0 hrs
[33] = Drug distribution in BALB/c mouse lung at 0.6 mg/kg, iv using compound labelled with cyanine-5 measured after 24 hrs by fluorescence based assay; type: ADME, organism-based; settings: read-out: Drug uptake
[34] = Drug distribution in BALB/c mouse muscle at […], sc using compound labelled with cyanine-5 measured after 24 hrs by fluorescence based assay; type: ADME, organism-based, Muscle tissue; settings: in vivo, dose 2.4 mg/kg
[35] = Drug distribution in BALB/c mouse liver at […], sc using compound labelled with cyanine-5 measured after 24 hrs by fluorescence based assay; type: ADME, organism-based; settings: in vivo, dose 2.4 mg/kg
[36] = Drug distribution in BALB/c mouse plasma at […], sc using compound labelled with cyanine-5 measured after 24 hrs by fluorescence based assay; type: ADME, organism-based; settings: in vivo, dose 2.4 mg/kg
Macrophage = assay: Inhibition of calcineurin-NFATc3 interaction in mouse lung macrophages assessed as reduction in LPS-induced IL6 production at 1 uM pre-incubated 4 hrs before LPS stimulation for 8 hrs by ELISA relative to 10 uM CsA; type: tissue-based; settings: time 12.0 hrs
[37] = Stability in mouse hepatocytes at 2 uM incubated up to 90 mins by LC/MS/MS analysis; type: ADME, cell-based, Hepatocyte

Structure (SMILES): CC[C@H](C)[C@H](NC(=O)[C@@H](NC(=O)c1ccnc(Cl)c1Cl)C(C)(C)C)C(=O)N[C@H](C(=O)N[C@H](C(=O)N[C@H](C(=O)N[C@@H](CCC(N)=O)C(=O)N[C@@H](Cc1c[nH]cn1)C(=O)N[C@H](CC(C)C)C(=O)N[C@@H](CO)C(=O)NCCOCCOCC(=O)N[C@@H](CCCCNC(=O)CC[C@@H]1NC(=O)[C@@H](CCCNC(=N)N)NC(=O)[C@H](CCCNC(=N)N)NC(=O)[C@@H](CCCNC(=N)N)NC(=O)[C@H](CCCNC(=N)N)NC(=O)[C@H](Cc2ccc3ccccc3c2)NC(=O)[C@@H](Cc2ccccc2)NC1=O)C(N)=O)[C@@H](C)O)[C@@H](C)CC)C(C)(C)O (I: X1-[Tle]I[Val(3-OH)]ITQH[dL]S[AEEA]K-NH2 / II: cyclo([2Nal]R[dR]R[dR]E[dF]); amide I:11-II:6)
- concentration at 8 h [1]: 15 nM
- concentration at 24 h [2]: > 50 nM
- Drug uptake [3]: Active
- Activity (Mus musculus [4]): inactive
- inhibition in vivo at 5 mg/kg (Mus musculus [5]): 100%
- Drug uptake [6]: Active
- Stability [7]: Stable
- concentration at 24 h [8]: > 50 nM
- Drug metabolism [9]: Metabolite_Detected
- Drug uptake [10]: Not Active
- Activity (Mus musculus [11]): Active
- Drug uptake [12]: Active
- Activity (Mus musculus [13]): Active
- inhibition (Homo sapiens): inactive
- concentration at 24 h [14]: > 50 nM
- concentration at 24 h [15]: > 50 nM
- metabolised at 1 h, 100 µM [16]: ≤ 25%
- concentration at 24 h [17]: > 50 nM
- Drug metabolism [18]: Metabolite_Detected
- Stabilty [19]: Stable
- concentration at 24 h [20]: > 50 nM
- concentration [21]: < 5 nM
- Drug uptake [22]: Active
- Drug uptake [23]: Not Active
- concentration at 24 h [24]: > 50 nM
- Drug uptake [25]: Active
- Drug uptake [26]: Not Active
- Drug uptake [27]: Active
- Drug metabolism [28]: Metabolite_Detected
- Drug uptake [29]: Active
- Drug uptake [30]: Active
- Stability [31]: Stable
- Activity (Mus musculus [32]): inactive
- concentration at 24 h [33]: > 50 nM
- Drug uptake [34]: Not Active
- Drug uptake [35]: Active
- Drug uptake [36]: Not Active
- fold change (FC) (Macrophage): 10
- Stabilty [37]: Stable
